Measured values published in ChEMBL document CHEMBL1153701, “Synthesis and evaluation of antiallodynic and anticonvulsant activity of novel amide and urea derivatives of valproic acid analogues” (2009).
Activity calls are given as the source filed them. The calls are words filed in the database; no cut-off is given here.

Experiments:
Type in all cases: functional, organism-based
[1] = tested on: Mus musculus; experiment: Antiepileptic activity in CF1 mouse assessed as inhibition of maximal electroshock-induced seizures at 300 mg/kg, ip after 0.5 hrs; design: dose 300 mg/kg
[2] = tested on: Mus musculus; experiment: Antiepileptic activity in CF1 mouse assessed as inhibition of subcutaneous pentylenetetrazole-induced seizures at 300 mg/kg, ip after 4 hrs; design: dose 300 mg/kg
[3] = tested on: Mus musculus; experiment: Antiepileptic activity in CF1 mouse assessed as inhibition of maximal electroshock-induced seizures at 100 mg/kg, ip after 0.5 hrs; design: dose 100 mg/kg
[4] = tested on: Rattus norvegicus; experiment: Antiallodynic activity in rat assessed as protection against spinal nerve ligation-induced neuropathic pain at 80 mg/kg, ip after 30 mins; design: dose 80 mg/kg
[5] = tested on: Mus musculus; experiment: Neurotoxicity in CF1 mouse assessed as protection against motor impairment at 300 mg/kg, ip after 4 hrs by rotarod test; design: dose 300 mg/kg
[6] = tested on: Mus musculus; experiment: Antiepileptic activity in CF1 mouse assessed as inhibition of subcutaneous pentylenetetrazole-induced seizures at 100 mg/kg, ip after 0.5 hrs; design: dose 100 mg/kg
[7] = tested on: Mus musculus; experiment: Neurotoxicity in CF1 mouse assessed as protection against motor impairment at 30 mg/kg, ip after 0.5 hrs by rotarod test; design: dose 30 mg/kg
[8] = tested on: Mus musculus; experiment: Neurotoxicity in CF1 mouse assessed as protection against motor impairment at 300 mg/kg, ip after 0.5 hrs by rotarod test; design: dose 300 mg/kg
[9] = tested on: Mus musculus; experiment: Antiepileptic activity in CF1 mouse assessed as inhibition of maximal electroshock-induced seizures at 300 mg/kg, ip after 4 hrs; design: dose 300 mg/kg
[10] = tested on: Mus musculus; experiment: Antiepileptic activity in CF1 mouse assessed as inhibition of subcutaneous pentylenetetrazole-induced seizures at 100 mg/kg, ip after 4 hrs; design: dose 100 mg/kg
[11] = tested on: Mus musculus; experiment: Neurotoxicity in CF1 mouse assessed as protection against motor impairment at 30 mg/kg, ip after 4 hrs by rotarod test; design: dose 30 mg/kg
[12] = tested on: Mus musculus; experiment: Antiepileptic activity in CF1 mouse assessed as inhibition of maximal electroshock-induced seizures at 100 mg/kg, ip after 4 hrs; design: dose 100 mg/kg
[13] = tested on: Mus musculus; experiment: Antiepileptic activity in CF1 mouse assessed as inhibition of subcutaneous pentylenetetrazole-induced seizures at 30 mg/kg, ip after 0.5 hrs; design: dose 30 mg/kg
[14] = tested on: Mus musculus; experiment: Antiepileptic activity in CF1 mouse assessed as inhibition of maximal electroshock-induced seizures at 30 mg/kg, ip after 0.5 hrs; design: dose 30 mg/kg
[15] = tested on: Mus musculus; experiment: Antiepileptic activity in CF1 mouse assessed as inhibition of maximal electroshock-induced seizures at 30 mg/kg, ip after 4 hrs; design: dose 30 mg/kg
[16] = tested on: Mus musculus; experiment: Neurotoxicity in CF1 mouse assessed as protection against motor impairment at 100 mg/kg, ip after 0.5 hrs by rotarod test; design: dose 100 mg/kg
[17] = tested on: Mus musculus; experiment: Antiepileptic activity in CF1 mouse assessed as inhibition of subcutaneous pentylenetetrazole-induced seizures at 30 mg/kg, ip after 4 hrs; design: dose 30 mg/kg
[18] = tested on: Mus musculus; experiment: Neurotoxicity in CF1 mouse assessed as protection against motor impairment at 100 mg/kg, ip after 4 hrs by rotarod test; design: dose 100 mg/kg
[19] = tested on: Mus musculus; experiment: Antiepileptic activity in CF1 mouse assessed as inhibition of subcutaneous pentylenetetrazole-induced seizures at 300 mg/kg, ip after 0.5 hrs; design: dose 300 mg/kg
[20] = tested on: Rattus norvegicus; experiment: Antiallodynic activity in rat assessed as protection against spinal nerve ligation-induced neuropathic pain at 80 mg/kg, ip after 240 mins; design: dose 80 mg/kg
[21] = tested on: Rattus norvegicus; experiment: Antiallodynic activity in rat assessed as protection against spinal nerve ligation-induced neuropathic pain at 80 mg/kg, ip after 60 mins; design: dose 80 mg/kg

Compound	Activity [1]	Activity [2]	Activity [3]	Activity [4]	Activity [5]	Activity [6]	Activity [7]	Activity [8]	Activity [9]	Activity [10]	Activity [11]	Activity [12]	Activity [13]	Activity [14]	Activity [15]	Activity [16]	Activity [17]	Activity [18]	Activity [19]	further results
CCCC(C(=O)NC)C(C)C (centres undefined)	inactive	inactive	inactive	inactive	inactive	inactive	inactive	Active	inactive	inactive	inactive	inactive	inactive	inactive	inactive	inactive	inactive	inactive	Active	
CCCC(CC)C(N)=O (centres undefined)	Active	inactive			inactive	inactive	inactive		Active	inactive	inactive	inactive	inactive	inactive	inactive	inactive	inactive	inactive	Active	
CC(C)C(C(=O)NC(N)=O)C(C)C	Active	inactive			Active	Active		Active	Active	inactive	inactive	inactive	inactive	inactive	inactive		inactive	inactive	Active	
CCC(C(N)=O)C(C)C (centres undefined)	Active	inactive	inactive		inactive	inactive	inactive		inactive	inactive	inactive	inactive	inactive	inactive	inactive	inactive	inactive	inactive	inactive	
CCCCC(CC)C(=O)NC (centres undefined)	Active	inactive		inactive	inactive	inactive	inactive	Active	Active	inactive	inactive	inactive	inactive	inactive	inactive	inactive	inactive	inactive	Active	
CC(C)CC(C(N)=O)C(C)C (centres undefined)	inactive	inactive	inactive		inactive	inactive	inactive		inactive	inactive	inactive	inactive	inactive	inactive	inactive		inactive	inactive	Active	Activity [20]: inactive
CCC(CC)C(N)=O	Active	inactive		inactive	inactive	inactive	inactive	inactive	inactive	inactive	inactive	inactive	inactive	inactive	inactive		inactive	inactive	inactive	Activity [21]: inactive
CCCC(CCC)C(=O)NC(N)=O	Active	inactive	Active			Active			Active	inactive		inactive	inactive	inactive	inactive		inactive	inactive	Active	
CCC(C)C(CC)C(=O)NC (centres undefined)	inactive	inactive	inactive	inactive	inactive	inactive	inactive		inactive	inactive	inactive	inactive	inactive	inactive	inactive		inactive	inactive	Active	
CC(C)C(C(N)=O)C(C)(C)C (centres undefined)	Active	Active			Active	Active	inactive	Active	Active	inactive	inactive	inactive	inactive	inactive	inactive		inactive	inactive	Active	
CCC(CC(C)C)C(N)=O (centres undefined)	Active	Active	inactive	inactive	inactive	inactive	inactive	Active	inactive	inactive	inactive	inactive	inactive	inactive	inactive	inactive	inactive	inactive		
CC(C)(C)C(N)=O	inactive	inactive	inactive		inactive		inactive	inactive	inactive	inactive	inactive	inactive	inactive	inactive	inactive	inactive	inactive	inactive	inactive	Activity [20]: inactive
CNC(=O)C(C(C)C)C(C)C	Active	inactive	inactive	inactive	inactive	inactive	inactive		inactive	inactive	inactive	inactive	inactive	inactive	inactive		inactive	inactive		
CCCC(CC(C)C)C(N)=O (centres undefined)	Active	inactive	inactive		inactive	inactive	inactive	Active	inactive	inactive	inactive	inactive	inactive	inactive	inactive	inactive	inactive	inactive	Active	Activity [20]: inactive
CC(C)(C)C(=O)NC(N)=O				inactive																Activity [20]: inactive
